Measured values taken from PubChem BioAssay AID2060882 (Molecular Pharmacology Branch, DTP, NCI, 2025).

Test system: 898857-211-R-J1-PDC complex spheroids, growth % test/control
Test: Anticancer human tumor 898857-211-R-J1-PDC patient-derived melanoma cell line growth inhibition [RAS]
Settings: for IC50: curve of first compound; for viability, T/C: stronger effect = lower value
Procedure, shortened: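 Multi-cell-type spheroids: tumor cells plus HUVEC endothelial cells and mesenchymal stem cells. RAS-pathway inhibitors were combined with targeted agents, each dosed in half-log steps down from clinical Cmax, or from 10 microM when Cmax was unknown.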

[1] = second compound 0.000949 µM, first compound 0.00316 µM
[2] = second compound 0.000949 µM, first compound 0.01 µM
[3] = second compound 0.000949 µM, first compound 0.0316 µM
[4] = second compound 0.000949 µM, first compound 0.1 µM
[5] = second compound 0.000949 µM, first compound 0.316 µM
[6] = second compound 0.000949 µM, first compound 1 µM
[7] = second compound 0.003 µM, first compound 0.00316 µM
[8] = second compound 0.003 µM, first compound 0.01 µM
[9] = second compound 0.003 µM, first compound 0.0316 µM
[10] = second compound 0.003 µM, first compound 0.1 µM
[11] = second compound 0.003 µM, first compound 0.316 µM
[12] = second compound 0.003 µM, first compound 1 µM
[13] = second compound 0.00949 µM, first compound 0.00316 µM
[14] = second compound 0.00949 µM, first compound 0.01 µM
[15] = second compound 0.00949 µM, first compound 0.0316 µM
[16] = second compound 0.00949 µM, first compound 0.1 µM
[17] = second compound 0.00949 µM, first compound 0.316 µM
[18] = second compound 0.00949 µM, first compound 1 µM
[19] = second compound 0.03 µM, first compound 0.00316 µM
[20] = second compound 0.03 µM, first compound 0.01 µM
[21] = second compound 0.03 µM, first compound 0.0316 µM
[22] = second compound 0.03 µM, first compound 0.1 µM
[23] = second compound 0.03 µM, first compound 0.316 µM
[24] = second compound 0.03 µM, first compound 1 µM
[25] = second compound 0.0949 µM, first compound 0.00316 µM
[26] = second compound 0.0949 µM, first compound 0.01 µM
[27] = second compound 0.0949 µM, first compound 0.0316 µM
[28] = second compound 0.0949 µM, first compound 0.1 µM
[29] = second compound 0.0949 µM, first compound 0.316 µM
[30] = second compound 0.0949 µM, first compound 1 µM
[31] = second compound 0.3 µM, first compound 0.00316 µM
[32] = second compound 0.3 µM, first compound 0.01 µM
[33] = second compound 0.3 µM, first compound 0.0316 µM
[34] = second compound 0.3 µM, first compound 0.1 µM
[35] = second compound 0.3 µM, first compound 0.316 µM
[36] = second compound 0.3 µM, first compound 1 µM
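Note: spheroids exposed to compound for seven days before readout.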
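Throughout, for viability, T/C: 100% = DMSO vehicle control wells.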

Compound: C=CC(=O)Nc1cc(Nc2nccc(-c3cn(C)c4ccccc34)n2)c(OC)cc1N(C)CCN(C)C + CCn1c(-c2cccnc2C(C)OC)c2c3cc(ccc31)N1CCOC(CC(NC(=O)C(C(C)C)N(C)C(=O)C3(F)CCN(C(=O)C#CC(C)(C)N(C)C)CC3)C(=O)N3CCCC(N3)C(=O)OCC(C)(C)C2)C1
- IC50 (second compound 0.000949 µM): > 1 µM
- IC50 (second compound 0.003 µM): 0.942 µM
- IC50 (second compound 0.00949 µM): > 1 µM
- IC50 (second compound 0.03 µM): > 1 µM
- IC50 (second compound 0.0949 µM): > 1 µM
- IC50 (second compound 0.3 µM): 0.848 µM
- viability, T/C [1]: 104%
- viability, T/C [2]: 103%
- viability, T/C [3]: 107%
- viability, T/C [4]: 84.9%
- viability, T/C [5]: 95.9%
- viability, T/C [6]: 56.3%
- viability, T/C [7]: 99.3%
- viability, T/C [8]: 99.9%
- viability, T/C [9]: 108%
- viability, T/C [10]: 95.4%
- viability, T/C [11]: 94.1%
- viability, T/C [12]: 47.1%
- viability, T/C [13]: 95.8%
- viability, T/C [14]: 97.8%
- viability, T/C [15]: 102%
- viability, T/C [16]: 94.8%
- viability, T/C [17]: 91.4%
- viability, T/C [18]: 59.9%
- viability, T/C [19]: 107%
- viability, T/C [20]: 105%
- viability, T/C [21]: 106%
- viability, T/C [22]: 110%
- viability, T/C [23]: 90.2%
- viability, T/C [24]: 58.3%
- viability, T/C [25]: 105%
- viability, T/C [26]: 98.2%
- viability, T/C [27]: 92.3%
- viability, T/C [28]: 96.6%
- viability, T/C [29]: 92.2%
- viability, T/C [30]: 57%
- viability, T/C [31]: 84.8%
- viability, T/C [32]: 67.8%
- viability, T/C [33]: 77.7%
- viability, T/C [34]: 76.1%
- viability, T/C [35]: 71.4%
- viability, T/C [36]: 46.4%

Compound: CC(Nc1ccc2c(c1)OCCn1cc(N3C(=O)OCC3C(F)F)nc1-2)C(N)=O (stereo unspecified) + CCn1c(-c2cccnc2C(C)OC)c2c3cc(ccc31)N1CCOC(CC(NC(=O)C(C(C)C)N(C)C(=O)C3(F)CCN(C(=O)C#CC(C)(C)N(C)C)CC3)C(=O)N3CCCC(N3)C(=O)OCC(C)(C)C2)C1
- IC50 (second compound 0.000949 µM): > 10 µM
- IC50 (second compound 0.003 µM): > 10 µM
- IC50 (second compound 0.00949 µM): > 10 µM
- IC50 (second compound 0.03 µM): > 10 µM
- IC50 (second compound 0.0949 µM): > 10 µM
- IC50 (second compound 0.3 µM): 5.64 µM
- viability, T/C [3]: 110%
- viability, T/C [4]: 87%
- viability, T/C [5]: 89.4%
- viability, T/C [6]: 92.7%
- viability, T/C (second compound 0.000949 µM, first compound 3.16 µM): 89.3%
- viability, T/C (second compound 0.000949 µM, first compound 10 µM): 65.8%
- viability, T/C [9]: 105%
- viability, T/C [10]: 103%
- viability, T/C [11]: 97.4%
- viability, T/C [12]: 104%
- viability, T/C (second compound 0.003 µM, first compound 3.16 µM): 96.7%
- viability, T/C (second compound 0.003 µM, first compound 10 µM): 63.2%
- viability, T/C [15]: 94.9%
- viability, T/C [16]: 104%
- viability, T/C [17]: 92.8%
- viability, T/C [18]: 103%
- viability, T/C (second compound 0.00949 µM, first compound 3.16 µM): 78.7%
- viability, T/C (second compound 0.00949 µM, first compound 10 µM): 66.4%
- viability, T/C [21]: 89.8%
- viability, T/C [22]: 98.3%
- viability, T/C [23]: 98.2%
- viability, T/C [24]: 95.4%
- viability, T/C (second compound 0.03 µM, first compound 3.16 µM): 75.8%
- viability, T/C (second compound 0.03 µM, first compound 10 µM): 58.8%
- viability, T/C [27]: 103%
- viability, T/C [28]: 98.7%
- viability, T/C [29]: 91%
- viability, T/C [30]: 83.8%
- viability, T/C (second compound 0.0949 µM, first compound 3.16 µM): 63.1%
- viability, T/C (second compound 0.0949 µM, first compound 10 µM): 53%
- viability, T/C [33]: 73.9%
- viability, T/C [34]: 74.7%
- viability, T/C [35]: 68%
- viability, T/C [36]: 69.5%
- viability, T/C (second compound 0.3 µM, first compound 3.16 µM): 57.6%
- viability, T/C (second compound 0.3 µM, first compound 10 µM): 41.8%

Compound: O=C(c1ccc(F)c(F)c1Nc1ccc(I)cc1F)N1CC(O)([C@@H]2CCCCN2)C1 + CCn1c(-c2cccnc2C(C)OC)c2c3cc(ccc31)N1CCOC(CC(NC(=O)C(C(C)C)N(C)C(=O)C3(F)CCN(C(=O)C#CC(C)(C)N(C)C)CC3)C(=O)N3CCCC(N3)C(=O)OCC(C)(C)C2)C1
- IC50 (second compound 0.000949 µM): 0.00375 µM
- IC50 (second compound 0.003 µM): 0.00367 µM
- IC50 (second compound 0.00949 µM): 0.00467 µM
- IC50 (second compound 0.03 µM): 0.0033 µM
- IC50 (second compound 0.0949 µM): < 0.00316 µM
- IC50 (second compound 0.3 µM): < 0.00316 µM
- viability, T/C [1]: 53.5%
- viability, T/C [2]: 36.4%
- viability, T/C [3]: 29.6%
- viability, T/C [4]: 23.9%
- viability, T/C [5]: 16.6%
- viability, T/C [6]: 12%
- viability, T/C [7]: 52.9%
- viability, T/C [8]: 35.4%
- viability, T/C [9]: 26.5%
- viability, T/C [10]: 22.4%
- viability, T/C [11]: 15.9%
- viability, T/C [12]: 11.8%
- viability, T/C [13]: 55.8%
- viability, T/C [14]: 39.3%
- viability, T/C [15]: 27.3%
- viability, T/C [16]: 21.6%
- viability, T/C [17]: 15.7%
- viability, T/C [18]: 12.7%
- viability, T/C [19]: 50.5%
- viability, T/C [20]: 35.5%
- viability, T/C [21]: 21.8%
- viability, T/C [22]: 20.4%
- viability, T/C [23]: 15.6%
- viability, T/C [24]: 12.4%
- viability, T/C [25]: 44.8%
- viability, T/C [26]: 35.4%
- viability, T/C [27]: 28.3%
- viability, T/C [28]: 18.2%
- viability, T/C [29]: 15.6%
- viability, T/C [30]: 13.4%
- viability, T/C [31]: 33.8%
- viability, T/C [32]: 29.3%
- viability, T/C [33]: 20.9%
- viability, T/C [34]: 16.6%
- viability, T/C [35]: 13.6%
- viability, T/C [36]: 10.7%
